Data published in PubChem BioAssay (NCI).
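Test compounds were applied to cells in 96-well plates for 48 hours at 5 doses. Abbreviation: GI50, concentration required for 50% inhibition of growth. At the TGI there is no net growth.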

What was measured:
Experiment in all cases: NCI-60 cell line screen, 48 h
A549 NSCLC = test system: A549 NSCLC
CCRF-CEM leukemia = test system: CCRF-CEM leukemia
CAKI-1 renal = test system: CAKI-1 renal
UACC-257 melanoma = test system: UACC-257 melanoma
EKVX NSCLC = test system: EKVX NSCLC
SK-OV-3 ovarian = test system: SK-OV-3 ovarian
RPMI-8226 leukemia = test system: RPMI-8226 leukemia
SW-620 colon = test system: SW-620 colon
OVCAR-8 ovarian = test system: OVCAR-8 ovarian
MOLT-4 leukemia = test system: MOLT-4 leukemia

## COc1ccc(CNCCCN2C(=O)c3ccc4c5c(ccc(c35)C2=O)C(=O)N(CCCNCCCCNCCCN)C4=O)c(OC)c1OC
A549 NSCLC
  GI50: 1.69 µM
  TGI: 16.1 µM
CCRF-CEM leukemia
  GI50: 1.94 µM
  TGI: 17.8 µM
CAKI-1 renal
  GI50: 4.49 µM
  TGI: 44.9 µM
UACC-257 melanoma
  GI50: 0.334 µM
  TGI: 1.38 µM
EKVX NSCLC
  GI50: 4.05 µM
  TGI: 19.3 µM
SK-OV-3 ovarian
  GI50: 3.18 µM
  TGI: 83.2 µM
RPMI-8226 leukemia
  GI50: 2.7 µM
  TGI: 12.2 µM
SW-620 colon
  GI50: 0.448 µM
  TGI: 2.52 µM
OVCAR-8 ovarian
  GI50: 0.618 µM
  TGI: 8.2 µM
MOLT-4 leukemia
  GI50: 1.53 µM
  TGI: 15.6 µM

## C[C@]1(O)CC(=O)[C@]2(O)C3=C(C=C[C@]2(O)C1)C(=O)c1c(O)cccc1C3=O
A549 NSCLC
  GI50: 16.3 µM
  TGI: 38.6 µM
CCRF-CEM leukemia
  GI50: 0.342 µM
  TGI: 3.33 µM
CAKI-1 renal
  GI50: 1.5 µM
  TGI: 2.85 µM
UACC-257 melanoma
  GI50: 1.68 µM
  TGI: 3.21 µM
EKVX NSCLC
  GI50: 11.6 µM
  TGI: 23.8 µM
SK-OV-3 ovarian
  GI50: 17.5 µM
  TGI: 42 µM
RPMI-8226 leukemia
  GI50: 1.64 µM
  TGI: 5.65 µM
SW-620 colon
  GI50: 1.2 µM
  TGI: 3.35 µM
OVCAR-8 ovarian
  GI50: 2.67 µM
  TGI: 7.75 µM
MOLT-4 leukemia
  GI50: 1.12 µM
  TGI: 3.98 µM

## COc1cc(C(C)c2cc3c(cc2OCCOCCOc2cc4c(cc2C(C)c2cc(OC)c(OC)c(OC)c2)OCO4)OCO3)cc(OC)c1OC (stereo unspecified)
A549 NSCLC
  GI50: > 100 µM
  TGI: > 100 µM
CCRF-CEM leukemia
  GI50: > 100 µM
  TGI: > 100 µM
CAKI-1 renal
  GI50: > 100 µM
  TGI: > 100 µM
UACC-257 melanoma
  TGI: > 10 µM
EKVX NSCLC
  GI50: > 100 µM
  TGI: > 100 µM
SK-OV-3 ovarian
  GI50: > 100 µM
  TGI: > 100 µM
RPMI-8226 leukemia
  TGI: > 100 µM
SW-620 colon
  GI50: > 100 µM
  TGI: > 100 µM
OVCAR-8 ovarian
  GI50: > 100 µM
  TGI: > 100 µM
MOLT-4 leukemia
  GI50: > 100 µM
  TGI: > 100 µM

## [O-]c1c(-c2ccccc2)[se]c(-c2ccccc2)[n+]1-c1ccccc1
A549 NSCLC
  TGI: 35.9 µM
CCRF-CEM leukemia
  TGI: 31.8 µM
CAKI-1 renal
  TGI: 34.1 µM
UACC-257 melanoma
  TGI: 25.3 µM
EKVX NSCLC
  TGI: 35.4 µM
SK-OV-3 ovarian
  TGI: 39.2 µM
RPMI-8226 leukemia
  TGI: > 100 µM
SW-620 colon
  TGI: 34.2 µM
OVCAR-8 ovarian
  TGI: 13.7 µM
MOLT-4 leukemia
  TGI: 92.9 µM

## S=C1SC2(CCCCCC2)NC2=C1CCCCC2
A549 NSCLC
  TGI: > 100 µM
CCRF-CEM leukemia
  TGI: > 100 µM
CAKI-1 renal
  TGI: > 100 µM
UACC-257 melanoma
  TGI: 67.1 µM
EKVX NSCLC
  TGI: 44.2 µM
SK-OV-3 ovarian
  TGI: > 100 µM
RPMI-8226 leukemia
  TGI: 69.3 µM
SW-620 colon
  TGI: > 100 µM
OVCAR-8 ovarian
  TGI: > 100 µM
MOLT-4 leukemia
  TGI: 66.8 µM

## O=C(O/N=C1/CCC/C1=C\c1ccccc1)c1ccc(Cl)cc1
A549 NSCLC
  TGI: > 100 µM
CCRF-CEM leukemia
  TGI: > 100 µM
CAKI-1 renal
  TGI: > 82.4 µM
UACC-257 melanoma
  TGI: > 100 µM
EKVX NSCLC
  TGI: > 100 µM
SK-OV-3 ovarian
  TGI: > 100 µM
RPMI-8226 leukemia
  TGI: > 100 µM
SW-620 colon
  TGI: > 100 µM
OVCAR-8 ovarian
  TGI: > 100 µM
MOLT-4 leukemia
  TGI: > 100 µM

## O=C1c2ccccc2C(=O)c2c1c(NCCNCCO)c1cc[nH]c1c2NCCNCCO
A549 NSCLC
  GI50: 5.46 µM
  TGI: 27.2 µM
CCRF-CEM leukemia
  GI50: 1.04 µM
CAKI-1 renal
  GI50: > 47.1 µM
  TGI: > 100 µM
UACC-257 melanoma
  GI50: 7.06 µM
  TGI: 29.9 µM
EKVX NSCLC
  GI50: 4.65 µM
  TGI: 25.5 µM
SK-OV-3 ovarian
  GI50: 2.85 µM
  TGI: 13.6 µM
RPMI-8226 leukemia
  GI50: 13.9 µM
  TGI: 47.8 µM
SW-620 colon
  GI50: 3.28 µM
  TGI: 25.9 µM
OVCAR-8 ovarian
  GI50: 2.42 µM
  TGI: 40.5 µM
MOLT-4 leukemia
  GI50: 1.28 µM

## Nc1nc(N)c2ncn(Cc3c(Cl)cccc3Cl)c2n1
A549 NSCLC
  TGI: > 100 µM
CCRF-CEM leukemia
  TGI: > 100 µM
CAKI-1 renal
  TGI: > 100 µM
UACC-257 melanoma
  TGI: > 100 µM
EKVX NSCLC
  TGI: > 100 µM
SK-OV-3 ovarian
  TGI: > 100 µM
RPMI-8226 leukemia
  TGI: > 100 µM
SW-620 colon
  TGI: > 100 µM
OVCAR-8 ovarian
  TGI: > 100 µM
MOLT-4 leukemia
  TGI: > 100 µM

## O=c1c2ccccc2c(C=NCCNCCO)c2oc3ccccc3n12
A549 NSCLC
  GI50: 4.03 µM
  TGI: 17 µM
CCRF-CEM leukemia
  GI50: 1.47 µM
  TGI: 16.1 µM
CAKI-1 renal
  GI50: 4.08 µM
  TGI: 15.5 µM
UACC-257 melanoma
  GI50: 12.1 µM
  TGI: 26.7 µM
EKVX NSCLC
  GI50: 9.3 µM
  TGI: 21.2 µM
SK-OV-3 ovarian
  GI50: 3.58 µM
  TGI: 15.9 µM
RPMI-8226 leukemia
  GI50: 7.67 µM
  TGI: 31.6 µM
SW-620 colon
  GI50: 4.63 µM
  TGI: 17 µM
OVCAR-8 ovarian
  GI50: 4.88 µM
  TGI: 19.7 µM
MOLT-4 leukemia
  GI50: 1.73 µM
  TGI: 11.7 µM

## C=C(C)[C@@H]1CC[C@]2(c3ncc(C)o3)CC[C@]3(C)[C@H](CC[C@@H]4[C@@](C)(CCC#N)[C@H](C(=C)C)CC[C@]43C)[C@@H]12
A549 NSCLC
  GI50: 6.19 µM
  TGI: 22.3 µM
CCRF-CEM leukemia
  GI50: 2.93 µM
  TGI: 10.2 µM
CAKI-1 renal
  GI50: 2.8 µM
  TGI: 16.1 µM
UACC-257 melanoma
  GI50: 9.02 µM
  TGI: 24.4 µM
EKVX NSCLC
  GI50: 3.13 µM
  TGI: 12.6 µM
SK-OV-3 ovarian
  GI50: 11.4 µM
  TGI: 25.2 µM
RPMI-8226 leukemia
  GI50: 2.44 µM
  TGI: 6.9 µM
SW-620 colon
  GI50: 5.81 µM
  TGI: 20.8 µM
OVCAR-8 ovarian
  GI50: 6.57 µM
  TGI: 21.9 µM
MOLT-4 leukemia
  GI50: 2.85 µM
  TGI: 9.82 µM

## CCCCCn1ncc(-c2c(O)c(O)cc3c(O)c(-c4c(C)cc5c(-c6cnn(CCCCC)n6)c(O)c(O)cc5c4O)c(C)cc23)n1
A549 NSCLC
  GI50: 0.117 µM
  TGI: 4.47 µM
CCRF-CEM leukemia
  GI50: 0.0927 µM
  TGI: 6.3 µM
CAKI-1 renal
  GI50: 0.156 µM
  TGI: 4.24 µM
UACC-257 melanoma
  GI50: 0.792 µM
  TGI: 6.12 µM
EKVX NSCLC
  GI50: 0.177 µM
  TGI: 4.61 µM
SK-OV-3 ovarian
  GI50: 0.142 µM
  TGI: 2.64 µM
RPMI-8226 leukemia
  GI50: 0.109 µM
  TGI: 4.9 µM
SW-620 colon
  GI50: 0.117 µM
  TGI: 6.26 µM
OVCAR-8 ovarian
  GI50: 0.125 µM
  TGI: 3.2 µM
MOLT-4 leukemia
  GI50: 0.0898 µM
  TGI: 8.28 µM

## CP(=O)(CCSc1ccccc1)c1ccccc1 (stereo unspecified)
A549 NSCLC
  TGI: > 100 µM
CCRF-CEM leukemia
  TGI: > 100 µM
CAKI-1 renal
  TGI: > 100 µM
UACC-257 melanoma
  TGI: > 100 µM
EKVX NSCLC
  TGI: > 100 µM
SK-OV-3 ovarian
  TGI: > 100 µM
RPMI-8226 leukemia
  TGI: > 100 µM
SW-620 colon
  TGI: > 100 µM
OVCAR-8 ovarian
  TGI: > 100 µM
MOLT-4 leukemia
  TGI: > 100 µM
